Results reported in ChEMBL document CHEMBL1201862, “PubChem BioAssay data set” (2004).
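Protocol summary: plate cells (96-well), add compound at 5 concentrations, incubate 48 h, interpolate endpoints linearly. GI50 marks 50% less growth.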 Active and inactive are the calls of the source. No stated cut-off is given here; in the data, active = GI50 up to about 1.1 µM and inactive = higher.

How the values were obtained:
Experiment in all cases: NCI-60 cell line screen, 48 h
CAKI-1 = test system: CAKI-1
SNB-19 = test system: SNB-19
K562 = test system: K562
HCC 2998 = test system: HCC 2998
SF-539 = test system: SF-539
OVCAR-3 = test system: OVCAR-3
IGROV-1 = test system: IGROV-1
NCI/ADR-RES = test system: NCI/ADR-RES
OVCAR-8 = test system: OVCAR-8
SF-295 = test system: SF-295
UACC-62 = test system: UACC-62
PC-3 = test system: PC-3
LOX IMVI = test system: LOX IMVI
RPMI-8226 = test system: RPMI-8226
SNB-75 = test system: SNB-75
OVCAR-5 = test system: OVCAR-5
786-0 = test system: 786-0
Malme-3M = test system: Malme-3M
UO-31 = test system: UO-31
DU-145 = test system: DU-145

Measured: GI50

COC(=O)C(=O)C(C(=O)C(=O)Nc1ccc(C)cc1)c1nc2ccc(C(=O)c3ccccc3)cc2nc1O (stereo not given)
inactive: CAKI-1 39.4 µM | SNB-19 > 100 µM | K562 42.2 µM | HCC 2998 92.3 µM | SF-539 > 100 µM | OVCAR-3 > 100 µM | IGROV-1 > 100 µM | NCI/ADR-RES 22.5 µM | OVCAR-8 42.2 µM | SF-295 65 µM | UACC-62 > 100 µM | PC-3 43.7 µM | LOX IMVI > 100 µM | RPMI-8226 > 100 µM | SNB-75 22.3 µM | OVCAR-5 > 100 µM | 786-0 > 100 µM | Malme-3M > 100 µM | UO-31 51.2 µM

c1ccc([P+](CCC[P+](c2ccccc2)(c2ccccc2)c2ccccc2)(c2ccccc2)c2ccccc2)cc1
inactive: CAKI-1 > 100 µM | SNB-19 16.3 µM | K562 8.2 µM | HCC 2998 32.2 µM | SF-539 39 µM | OVCAR-3 13.5 µM | IGROV-1 41.7 µM | OVCAR-8 32.6 µM | SF-295 31.3 µM | UACC-62 26.1 µM | LOX IMVI 23.7 µM | RPMI-8226 7.38 µM | SNB-75 31.8 µM | OVCAR-5 71.1 µM | 786-0 > 100 µM | Malme-3M 70.8 µM | UO-31 > 99.5 µM

CC1(CCC2C=CCC2)CCCNC1=S (stereo not given)
inactive: SNB-19 > 10 µM | K562 > 10 µM | HCC 2998 > 10 µM | SF-539 > 10 µM | OVCAR-3 > 10 µM | DU-145 > 10 µM | IGROV-1 > 10 µM | OVCAR-8 > 10 µM | SF-295 > 10 µM | UACC-62 > 10 µM | PC-3 > 10 µM | LOX IMVI > 10 µM | RPMI-8226 > 10 µM | SNB-75 > 10 µM | OVCAR-5 > 10 µM | 786-0 > 10 µM | Malme-3M > 10 µM | UO-31 > 10 µM

Fc1ccc(Nc2nnc(-c3ccccn3)s2)cc1
inactive: CAKI-1 > 100 µM | SNB-19 > 100 µM | SF-539 > 100 µM | OVCAR-3 > 100 µM | DU-145 > 100 µM | IGROV-1 > 100 µM | NCI/ADR-RES > 100 µM | OVCAR-8 > 100 µM | SF-295 > 100 µM | UACC-62 > 100 µM | PC-3 > 100 µM | LOX IMVI > 100 µM | RPMI-8226 > 100 µM | OVCAR-5 > 100 µM | 786-0 > 100 µM | Malme-3M > 100 µM

COc1cccc(C=C2N=C(C)N(n3c(-c4ccccc4)nc4ccccc4c3=O)C2=O)c1
inactive: CAKI-1 > 100 µM | SNB-19 > 100 µM | K562 > 100 µM | HCC 2998 > 100 µM | SF-539 > 100 µM | DU-145 > 100 µM | IGROV-1 > 100 µM | OVCAR-8 > 100 µM | SF-295 95.5 µM | UACC-62 > 100 µM | PC-3 > 100 µM | LOX IMVI > 100 µM | RPMI-8226 59 µM | SNB-75 56.1 µM | 786-0 > 100 µM | UO-31 > 100 µM

COc1ccccc1NC(=O)C1=C(C)NC(C)=C(C(=O)Nc2ccccc2OC)C1c1cccc2ccccc12
inactive: CAKI-1 68.1 µM | SNB-19 53 µM | K562 13.3 µM | HCC 2998 83.8 µM | SF-539 > 100 µM | OVCAR-3 64 µM | IGROV-1 > 100 µM | OVCAR-8 > 100 µM | SF-295 90.6 µM | UACC-62 > 100 µM | LOX IMVI > 100 µM | RPMI-8226 9.29 µM | SNB-75 14.3 µM | OVCAR-5 > 100 µM | 786-0 > 100 µM | Malme-3M 38.6 µM | UO-31 13.7 µM

CCO/C(CCn1[nH]c(=O)c(Cl)c(Cl)c1=O)=N\NC(=O)C(=O)NN
inactive: CAKI-1 > 100 µM | SNB-19 > 100 µM | K562 > 100 µM | HCC 2998 > 100 µM | SF-539 > 100 µM | OVCAR-3 > 100 µM | IGROV-1 > 100 µM | OVCAR-8 > 100 µM | SF-295 > 100 µM | UACC-62 > 100 µM | LOX IMVI > 100 µM | RPMI-8226 > 100 µM | SNB-75 > 100 µM | OVCAR-5 > 100 µM | 786-0 > 100 µM | Malme-3M > 100 µM | UO-31 > 100 µM
